Results reported in publication PMC5441580, “GPR40 partial agonist MK-2305 lower fasting glucose in the Goto Kakizaki rat via suppression of endogenous glucose production” (PLoS ONE, 2017).
Where “and” joins values, the source holds several entries; their conditions need not be identical. Equal entries are not always repeated. Values belong to the compound of their own block, whether it stands above or below them.

How the values were obtained:
[1] = test system: perfused db/db mouse livers; assay: isolated perfused liver study, 13C NMR, [2-13C] pyruvate; conditions: data not shown
Experimental: To evaluate whether GPR40 partial agonist treatment produced a direct effect on hepatic glucose production, we performed isolated perfused liver studies with ^13C NMR spectroscopy in which GPR40 agonists were dosed directly to the liver ex vivo. Mouse livers were chosen instead of rat livers due to size restrictions of the perfused liver apparatus. […] A detailed description of the perfused liver technique can be found elsewhere. Briefly, db/db mice were anesthetized (Nembutal IP, 100 mg/kg), the portal vein was cannulated and tied off, and the liver was excised and perfused with a pre-oxygenated Krebs-bicarbonate buffered solution. The liver was then placed into a 20 mm NMR tube and the gluconeogenic substrate [2-^13C] pyruvate (10 mM) was added to the perfusate plus either MK-2305 (10 μM) or vehicle (0.1% DMSO). […] These NMR signals were then converted to absolute units (μmoles) by comparison to ^13C NMR spectra of standard solutions acquired under identical conditions. Additional correction factors were included for ^13C-glycogen and ^13C-glucose to account for the fact that position 2 in pyruvate can end up at position 1, 2, 5, or 6 in glucose/glycogen due to the fumarase and triose phosphate isomerase reactions. The slope of each signal versus time was then used to calculate the following fluxes: glucose production, glycogen synthesis, and lactate production.

GK rats [2] = assay: GK rat chronic efficacy, compound in feed for 20 days; type: in vivo; conditions: for Morning (fed) Blood Glucose: Rosi 10 mpk in feed
Experimental: At the start of the study, fed glucose was measured at 8 A.M., and animals were selected and sorted into treatment groups based on ambient glucose (n = 10/male GK group, n = 6/male WKY control group). […] Fed blood glucose, food intake, and body weights were determined on days 0, 1, 3, 7, and 14 of study at 8 A.M. On days 7 and 14, food was removed for 5 h and plasma glucose was measured. Percent inhibitions were calculated as the percent reduction of blood glucose from the average value for vehicle controls. On day 14, blood was collected from the tail vein (20 μl) after the morning glucose measurement and after 5 h fast from a subset of n = 3 rats per treatment group to determine the ambient and fasted exposure of the compounds in circulation. The blood was stored at 4°C in 0.1 M sodium monocitrate for subsequent analysis. Animals were then re-fed their respective diet treatments. On day 20 of treatment at 8 A.M., blood glucose was measured and then animals were euthanized via CO2 asphyxiation. Blood and liver tissue were sampled, processed, and stored at -80°C until analysis.
Plasma was analyzed for triglycerides, NEFA, and HbA1C using a P Modular Roche Clinical Chemistry analyzer. Liver triglycerides were extracted as described by Bligh and Dyer, and were measured using the Infinity triglyceride assay kit (Thermo Scientific, Rockford, IL). Plasma insulin levels were measured via EIA (Mesoscale Discovery ELISA Kit, Gaithersburg MD).

[3] = plasma exposure of the compounds on day 14 of the chronic study; type: in vivo, rat; conditions: 10 mg/kg in feed, GK rats
Experimental: At the start of the study, fed glucose was measured at 8 A.M., and animals were selected and sorted into treatment groups based on ambient glucose (n = 10/male GK group, n = 6/male WKY control group). Animals were then placed on diet (LabDiet # 5001) that contained, or was devoid of, compound at the daily doses indicated. Fed blood glucose, food intake, and body weights were determined on days 0, 1, 3, 7, and 14 of study at 8 A.M. On days 7 and 14, food was removed for 5 h and plasma glucose was measured. Percent inhibitions were calculated as the percent reduction of blood glucose from the average value for vehicle controls. On day 14, blood was collected from the tail vein (20 μl) after the morning glucose measurement and after 5 h fast from a subset of n = 3 rats per treatment group to determine the ambient and fasted exposure of the compounds in circulation. The blood was stored at 4°C in 0.1 M sodium monocitrate for subsequent analysis. Animals were then re-fed their respective diet treatments. On day 20 of treatment at 8 A.M., blood glucose was measured and then animals were euthanized via CO2 asphyxiation. Blood and liver tissue were sampled, processed, and stored at -80°C until analysis.

GK rats [4] = assay: GK rat chronic efficacy, compound in feed for 20 days; type: in vivo; conditions: Day 7, ~6 hrs after food removal; 10mpk; chronic study; individual animals; 10 mg/kg
diabetic humans = conditions: clinical trials; cited from earlier work
rat GPR40 (FFAR1) = target: T1, rat GPR40 (FFAR1) (Rattus norvegicus, UniProt Q8K3T4); assay: IP1 functional assay, CHO cells stably expressing rat GPR40; type: cell-based; conditions: representative curve Fig 1B
T1 construct: expressed in transfected cells
Experimental: CHO Jump-IN cells stably expressing rat GPR40 or HEK293 Jump-IN cells stably expressing rat GPR120 were cultured in DMEM media supplemented with 10% dialyzed FBS, non-essential amino acids, penicillin/streptomycin, 10 μg/ml Blasticidin S HCL and 200 or 100 μg/ml Hygromycin B, respectively (Life Technologies). Cell stocks were maintained and grown in a sub-confluent state using standard cell culture procedures. The day before the experiment, the cells were harvested with non-enzymatic cell dissociation buffer and re-suspended in DMEM supplemented as described above at 0.15 million cells per ml. […] The seeded plates were incubated overnight at 37°C in a humidified environment.
On the day of the experiment, the growth media was removed from the assay plate by centrifugation using a BlueCatBio BlueWasher, protocol #21 “Light Dry” and 10 μl of IP1 stimulation buffer (prepared according to the Cisbio IP-one Tb HTRF kit) is added to each well. Test compounds were dissolved and serially diluted in DMSO as 200X the final assay concentration and 50 nl of the compound dilution was acoustically added to each well of the assay plates. The plates were then incubated for 60 minutes at room temperature and 10 μl of detection buffer (prepared according to the IP-one Tb HTRF kit) is added to each well of the assay plate. The plates were then incubated for one additional hour at room temperature. […] For each assay, a standard curve plate in which IP1 is titrated is also included. […] The % activation is then plotted versus the concentration of test compound and the dose response curve fitted to a standard 4-paramater non-linear regression model using a custom in-house developed software package. Maximal % activation and EC50 are then determined for each test compound.

[5] = 10 mpk, following 20 days of treatment in the GK rat, individual animals

T1 sequence (Q8K3T4 whole entry): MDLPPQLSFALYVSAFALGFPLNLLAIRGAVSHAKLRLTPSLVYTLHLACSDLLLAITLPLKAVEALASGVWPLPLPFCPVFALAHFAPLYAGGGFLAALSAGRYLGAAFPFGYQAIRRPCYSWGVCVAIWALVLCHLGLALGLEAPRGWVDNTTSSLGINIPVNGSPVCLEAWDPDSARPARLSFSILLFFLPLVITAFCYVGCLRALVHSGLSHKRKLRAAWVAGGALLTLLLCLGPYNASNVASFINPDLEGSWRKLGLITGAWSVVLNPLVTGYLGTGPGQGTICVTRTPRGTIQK

Compound: O=C(O)c1ncccc1S [3-MPA, reference compound]
effect on gluconeogenesis in the perfused liver [1]: marked acute reductions

Compound: CCOC(=O)[C@H](C)NP(=O)(N[C@@H](C)C(=O)OCC)c1ccc(-c2nc(N)sc2CC(C)C)o1 [CS917, reference compound]
effect on gluconeogenesis in the perfused liver [1]: marked acute reductions

plasma exposure ([3]; day 14, fasted time point): ~0.7 µM | plasma exposure ([3]; day 14, fed time point): ~ 3 μM
Compound: CN(CCOc1ccc(CC2SC(=O)NC2=O)cc1)c1ccccn1 (stereo not shown) [Rosiglitazone, reference compound]
effect on body weight (GK rats [2]; 10 mg/kg in feed, GK rats): steady increase in body weight | effect on food intake (GK rats [2]; 10 mg/kg in feed, GK rats): significant and consistent increase in food consumption beginning on day 3 | % HBA1c (GK rats [2]; [5]): 4.4% and 4.2% and 4.3% and 4.7% | Liver Triglycerides (GK rats [2]; [5]): 5.5 mg/g tissue and 8.7 mg/g tissue and 7.2 mg/g tissue and 5 mg/g tissue and 3.9 mg/g tissue and 6.1 mg/g tissue and 3.1 mg/g tissue | Fasted plasma insulin (GK rats [2]; Day 7, 10mpk, individual animals, 10 mg/kg): 64.4 pg/mL and 7.9 pg/mL and 28.0 pg/mL and 0.0 pg/mL and 126.7 pg/mL and 13.3 pg/mL and 40.2 pg/mL and 147.0 pg/mL and 54.7 pg/mL | Fasted plasma insulin (GK rats [2]; Day 14, 10mpk, individual animals, 10 mg/kg): 82.7 pg/mL and 67.8 pg/mL and 78.9 pg/mL and 214.4 pg/mL and 804.3 pg/mL and 809.3 pg/mL and 0.0 pg/mL and 890.8 pg/mL and 292.0 pg/mL | Morning (fed) Blood Glucose (GK rats [2]; Day 0 (start of study), individual GK rats): 195 mg/dL and 181 mg/dL and 219 mg/dL and 203 mg/dL and 204 mg/dL and 243 mg/dL and 186 mg/dL and 233 mg/dL and 191 mg/dL and 282 mg/dL | Morning (fed) Blood Glucose (GK rats [2]; Day 1, individual GK rats): 211 mg/dL and 175 mg/dL and 218 mg/dL and 246 mg/dL and 213 mg/dL and 240 mg/dL and 207 mg/dL and 205 mg/dL and 198 mg/dL and 275 mg/dL | Morning (fed) Blood Glucose (GK rats [2]; Day 3, individual GK rats): 129 mg/dL and 177 mg/dL and 163 mg/dL and 175 mg/dL and 172 mg/dL and 174 mg/dL and 242 mg/dL | Morning (fed) Blood Glucose (GK rats [2]; Day 7, individual GK rats): 135 mg/dL and 125 mg/dL and 137 mg/dL and 118 mg/dL and 123 mg/dL | Morning (fed) Blood Glucose (GK rats [2]; Day 14, individual GK rats): 133 mg/dL and 134 mg/dL and 121 mg/dL and 132 mg/dL | Morning (fed) Blood Glucose (GK rats [2]; Day 20, individual GK rats): 126 mg/dL and 133 mg/dL and 128 mg/dL and 129 mg/dL and 127 mg/dL and 123 mg/dL | NEFA (mEq/L) (GK rats [2]; Rosi @ 10, 20 days of treatment, individual GK rats): 0.32 mEq/L and 0.33 mEq/L and 0.35 mEq/L and 0.75 mEq/L and 0.49 mEq/L and 0.54 mEq/L and 0.48 mEq/L and 0.39 mEq/L and 0.65 mEq/L | decrease in fed glucose vs. vehicle (GK rats [2]; day 3, 10 mg/kg in feed, GK rats, p < 0.05): 22% | reduction in fasting blood glucose vs. vehicle (GK rats [2]; day 7, 5 hr fast, 10 mg/kg in feed, GK rats): 16% | reduction in fasting blood glucose vs. vehicle (GK rats [2]; day 14, 5 hr fast, 10 mg/kg in feed, GK rats): 19% | plasma NEFA (GK rats [2]; day 20, 10 mg/kg in feed, GK rats, mean ± SEM, vehicle 0.37 ± 0.03, not significant): 0.48 ± 0.05 mEq/L | effect on circulating HbA1C levels (GK rats [2]; day 20, GK rats, all treatment groups): significantly reduced | effect on liver triglyceride levels (GK rats [2]; day 20, GK rats, vs. vehicle controls): significant decrease | effect on fasted plasma insulin (GK rats [2]; days 7 and 14, 5 hr fast, GK rats): no significant effects | Fasted blood glucose (GK rats [2]; second block of the table (day 14 per title), 10mpk, individual animals, 10 mg/kg): 124 mg/dl and 131 mg/dl (2×) and 114 mg/dl and 133 mg/dl and 134 mg/dl | Fasted blood glucose (GK rats [4]): 109 mg/dL and 132 mg/dL and 121 mg/dL and 119 mg/dL and 134 mg/dL and 110 mg/dL and 115 mg/dL and 116 mg/dL

Compound: Cc1cc(OCCCS(C)(=O)=O)cc(C)c1-c1cccc(COc2ccc3c(c2)OC[C@H]3CC(=O)O)c1 [TAK-875, Fasiglifam]
effect on oral glucose tolerance, fasted plasma glucose, and hemoglobin HbA1C (diabetic humans): significant reductions

Receptor Activation (%) (rat GPR40 (FFAR1); Concentration 1e-6 M): 370% | Receptor Activation (%) (rat GPR40 (FFAR1); Concentration 1.50E-11 M): -18% | Receptor Activation (%) (rat GPR40 (FFAR1); Concentration 1.56E-08 M): 132% | Receptor Activation (%) (rat GPR40 (FFAR1); Concentration 2.44E-10 M): 11% | Receptor Activation (%) (rat GPR40 (FFAR1); Concentration 2.50E-07 M): 361% | Receptor Activation (%) (rat GPR40 (FFAR1); Concentration 3.91E-09 M): 23% | Receptor Activation (%) (rat GPR40 (FFAR1); Concentration 4.00E-12 M): -6% | Receptor Activation (%) (rat GPR40 (FFAR1); Concentration 6.10E-11 M): 2% | Receptor Activation (%) (rat GPR40 (FFAR1); Concentration 6.25E-08 M): 275% | Receptor Activation (%) (rat GPR40 (FFAR1); Concentration 9.77E-10 M): 18%
Compound: COc1ccc(F)c(-c2ccc(COc3cccc([C@@H](CC(=O)O)C4CC4)c3)cc2C2=CCCC2(C)C)c1 [AM1638, reference compound]
